Experimental data as given in patent publication US7375105B2, “Pyridine substituted furan derivatives as Raf kinase inhibitors” (SmithKline Beecham p.l.c., priority 2001, dated 2008).

Tests used:
B-Raf = B-Raf (Homo sapiens, UniProt P15056); test: Fluorescence anisotropy kinase binding assay (Assay 1)
Text: Fluorescence Anisoptrophy Kinase Binding Assay
The concentration of kinase enzyme should preferably be >1×Kf. The concentration of fluorescent ligand required will depend on the instrumentation used, and the fluorescent and physicochemical properties. The concentration used must be lower than the concentration of kinase enzyme, and preferably less than half the kinase enzyme concentration. A typical protocol is:
All compounds are serially diluted in DMSO, then by a one step dilution into buffer of comparison, 50 mM HEPES, […] pH7.5, 1 mM CHAPS, 10 mM MgCL2, for the assay.
B-Raf Enzyme concentration: 1 nM
Fluorescent ligand concentration: 0.5 nM
Test compound concentration: 0.5 nM-100 uM
Components incubated in 10 ul final volume in LJL HE 384 type B black microtitre plate until equilibrium reached (Over 3 h, up to 30 h)
Fluorescence anisotropy read in an LJL Acquest fluorescence reader.
Definitions: Ki=dissociation constant for inhibitor binding
• Kf=dissociation constant for fluorescent ligand binding
The fluorescent ligand is the following compound:
which is derived from 5-[2-(4-aminomethylphenyl)-5-pyridin-4-yl-1H-imidazol-4-yl]-2-chlorophenol and rhodamine green.

[1] = tested on: Human diploid foreskin fibroblasts (HFF); test: XTT 72 hr growth inhibition (Assay 3), HFF; format: cell-based; conditions: Fibroblast, normal, B-Raf wt, Ras wt
Experimental: (§1) XTT 72 Hr Growth Inhibition Protocol for Mammalian Cultured Cells (Assay 3)
(§2) Human diploid foreskin fibroblasts (HFF) or human colon carcinoma (Colo 201) cells were grown in Dulbecco's modified Eagle's medium (DMEM) (Invitrogen/Life Technologies) containing 10% fetal bovine serum (FBS) and the antibiotics penicillin (100 Units/ml) and streotomycin (100 micrograms/ml) (Invitrogen/Life Technologies). Growth was at 37° C. in humidified 5% CO2 incubators in 75 cm^2 plastic flasks. Cells were harvested using 0.25% trypsin/1 mM ethylenediaminetetraacetic acid (EDTA), resuspended in growth medium, and counted using a hemocytometer. Flat-bottomed 96-well plates were seeded with 2×10^3 cells/well in a volume of 200 ul from trypsinized exponentially growing cultures. To “blank” wells, growth medium was added with no additions. Cells were incubated overnight to permit attachment.
(§3) Next day, medium from wells that contained cells was replaced with 180 microliters of fresh medium. Appropriate dilutions of test compounds were added to the wells from stock solutions of compound dissolved in dimethyl sulfoxide (DMSO); final DMSO concentration in all wells was 0.2%. […] Absorbance at 450 nm was then determined using a 96-well UV plate reader (Molecular Devices). Under these conditions, absorbance of untreated control cells at 450 nm was at least 1.0 optical density unit/ml. […]

[2] = tested on: human colon carcinoma (Colo 201) cells; test: XTT 72 hr growth inhibition (Assay 3), Colo201; format: cell-based; conditions: colorectal cancer, B-Raf ND, Ras ND
Experimental: as §1, §2, §3

[3] = tested on: colon carcinoma (Colo 205); test: Methylene blue growth inhibition assay (Assay 2), Colo205; format: cell-based; conditions: Homo sapiens, colorectal cancer, B-Raf V599E, Ras wt
Experimental: (§4) Methylene Blue Growth Inhibition Assay (Assay 2)
(§5) Normal human foreskin fibroblasts (HFF), human melanoma (A375P, SKMEL2, SKMEL3) colon carcinoma (Colo 205) were cultured in the following growth media: A375P, Colo 205, Roswell Park Memorial Institute (RPMI) 1640 (Life Technologies 22400-089) containing 10% fetal bovine serum (FBS); HFF, Dulbecco's modified Eagle Medium (DMEM) (Life Technologies 12320-032) containing 10% FBS; SKMEL2 and SKMEL3, Minimum Essential Medium (MEM, Life Technologies 11095-080) containing 1× non-essential amino acids (Life Technologies 11140-050) and 10% FBS. Cells were harvested using 0.25% trypsin/1 mM, EDTA, counted using a haemocytometer, and plated in 100 microliters of the appropriate media, at the following densities, in a 96-well tissue culture plate (Falcon 3075): HFF and A375P, 5,000 cells/well; all other cell lines, 10,000 cells/well. The next day, compounds were diluted in RPMI containing 100 micrograms/ml gentamicin, at twice the final required concentration, from 10 mM stock solutions in dimethyl sulphoxide (DMSO). One hundred microliters per well of these dilutions were added to the 100 microliters of media currently on the cell plates. RPMI containing 0.6% DMSO was added to control wells. […] Optical density at 620 nm was measured on a microplate reader. Percent inhibition of cell growth was calculated relative to vehicle treated control wells. […]

human melanoma A375P = test: Methylene blue growth inhibition assay (Assay 2), A375P; format: cell-based; conditions: B-Raf V599E, Ras wt
Experimental: as §4, §5

human melanoma SKMEL3 = test: Methylene blue growth inhibition assay (Assay 2), SKMEL3; format: cell-based; conditions: SK-MEL3, B-Raf V599E, Ras wt
Experimental: as §4, §5

human melanoma SKMEL2 = test: Methylene blue growth inhibition assay (Assay 2), SKMEL2; format: cell-based; conditions: SK-MEL-2, B-Raf wt, [Q61R]N-Ras
Experimental: as §4, §5

B-Raf, sequence (P15056 whole entry): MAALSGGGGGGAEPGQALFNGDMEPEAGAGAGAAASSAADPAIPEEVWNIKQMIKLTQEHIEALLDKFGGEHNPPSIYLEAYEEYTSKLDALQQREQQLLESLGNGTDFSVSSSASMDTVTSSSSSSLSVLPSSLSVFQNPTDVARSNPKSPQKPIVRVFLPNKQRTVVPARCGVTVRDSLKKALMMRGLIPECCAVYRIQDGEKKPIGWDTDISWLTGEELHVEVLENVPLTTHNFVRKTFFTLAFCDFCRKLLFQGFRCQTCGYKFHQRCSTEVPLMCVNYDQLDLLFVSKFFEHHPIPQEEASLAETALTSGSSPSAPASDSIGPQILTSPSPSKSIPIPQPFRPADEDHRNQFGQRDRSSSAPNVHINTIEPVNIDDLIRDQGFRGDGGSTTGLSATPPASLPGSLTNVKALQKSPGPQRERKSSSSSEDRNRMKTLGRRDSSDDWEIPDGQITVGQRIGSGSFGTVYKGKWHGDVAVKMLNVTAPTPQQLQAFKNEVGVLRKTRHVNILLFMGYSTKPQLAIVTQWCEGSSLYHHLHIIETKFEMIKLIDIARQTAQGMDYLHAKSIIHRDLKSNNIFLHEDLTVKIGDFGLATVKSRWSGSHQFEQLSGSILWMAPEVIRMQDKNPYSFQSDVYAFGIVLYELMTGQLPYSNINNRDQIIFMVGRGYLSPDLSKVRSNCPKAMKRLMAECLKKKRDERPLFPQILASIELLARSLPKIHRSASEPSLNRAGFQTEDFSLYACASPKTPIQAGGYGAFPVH

Kd (B-Raf): 5.5 nM
IC50 [2]: 8.5 µM
IC50 [3]: 7.9 µM
IC50 (human melanoma A375P): 1.8 µM
IC50 (human melanoma SKMEL3): 1.4 µM
IC50 (human melanoma SKMEL2): 4.9 µM
Compound: CC(C)(CN)c1cc(-c2ccncc2)c(-c2ccc(Cl)c(O)c2)o1 [Example 3, 5-[5-(2-Amino-1,1-dimethyl-ethyl)-3-pyridin-4-yl-furan-2-yl]-2-chloro-phenol]
IC50 [1]: 22 µM
